# In US9463242B2, “Methods for treating prostate cancer” (UNIVERSITY OF ROCHESTER, priority 2011, dated 2016):
# “Also recorded” adds a separate entry of the source. Where two headings read alike, the source gives them in different places.
# Assays:
# [1] = system: primary cultured human stromal cells (ps-1); assay: TGF-β1 treatment of primary cultured human prostate stromal cells, α-SMA and calponin staining; type: cell-based; conditions: different concentrations of TGF-β1 for 1 to 5 days
# Experimental: (§1) In FIG. 5a, the expression of TGF-β1 was investigated by IHC staining. The decreased expression of TGF-β1 was found in pes-ARKO epithelium. […] In FIG. 5c, to evaluate the TGF-β1 effect on the differentiation of smooth muscle cells, the primary cultured human prostate stromal cells were treated with different doses of TGF-β1. The expression of smooth muscle α-actin, as shown in FIG. 5c and FIG. 5d, and calponin, as shown in FIG. 5e and FIG. 5f, were detected following treatment for 1 to 5 days.
# (§2) The expression of TGF-β1 (FIG. 5a) and TGF-β1 downstream signals was detected by immunohistochemistry (IHC) staining in 24 week old wild type and pes-ARKO prostate epithelium. The TGF-β1 expression and its downstream signals were lower in the epithelium of pes-ARKO mice than those from wild type mice. […] MyoD and Myogenin expression, which are deeply involved in the stromal smooth muscle maturation and differentiation, was also modulated by TGF-β1 stimulation (FIG. 5g).
# [2] = system: MyoD and Myogenin expression in primary cultured human prostate stromal cells; assay: Expression of smooth muscle maturation genes after TGF-β1 treatment; type: cell-based; conditions: 10 ng/ml TGF-β1 treatment
# Experimental: as §1, §2
# [3] = system: PCa S/P cells (LNCaP CD133+); assay: MTT growth assay of prostate cancer S/P cells treated with inhibitors; type: cell-based, human; conditions: for IC50: Homo sapiens, LNCaP; for inhibitory effect on proliferation of the S/P cells: used individually
# Experimental: For an MTT assay, cells were incubated in 12- or 24-well culture plates (10^5-10^3 cells/well) and cultured. At 2, 4, and 6 days, 3-(4,5-dimethylthiazol-2-yl)-2,5-diphenyltetrazolium bromide (MTT; 0.5 mg/mL; Sigma) was added. After 2 hours of reaction, absorbances at 570 nm were measured. For soft agar colony formation assay, cell suspension (1×10^4 cells/well in 6 well culture plates) of mixture of 1.5% agarose (Cambrex Bio Science Rockland, Ill.) and 2× medium (2 ml) was overlaid onto the solidified mixture of agarose base (final agarose concentration will be 0.75%). Two mL of normal medium containing various concentrations of DHT was added on top of the solidified agarose cell layer. All conditions were performed in triplicate. The plates were incubated at 37° C. in a humidified incubator for 21 days. The colonies developed were visualized by staining with 1% crystal violet. The colonies larger than 1 mm in diameter were counted. For sphere formation assay, a single cell suspension (1×10^3, in 50 μl medium) was mixed with cold Matrigel 50 μl (kept on ice) and the mixture was placed along the rim of the 24 well with minimum triplicate experiments. The culture plates were placed in a 37° C. incubator for 10 min to let the mixture solidify and 500 μl medium was then added into the well. Cells were grown in 5% RPMI (for human PCa S/P cells) and epithelial basal medium (PrEBM) (Lonza) supplemented with growth supplement (Lonza) (for mouse cells) with addition of various concentrations of DHT (1 or 10 nM). Spheres numbers were counted after 7 to 14 days under Olympus light microscope and size differences were also examined.
# The effect of combined use of these molecules to block self-renewal/proliferation of the S/P cells was tested. […] The effect of a combinations of two drugs selected among three drugs, LY294002 (inhibitor of Akt pathway), γ-TT, and 5-AZA was tested. […] The test results of the combination therapies using soft agar (FIG. 19C) and sphere formation assays (FIG. 19D) confirmed the MTT results. One method of two drug combination therapy was selected based on these three growth assays. This combination is the use of γ-TT and 5-AZA. From all the in vitro tests including an LD test, a minimum dose of these drugs that kills S/P cells was determined. This strategy was used for an in vivo study. When tumors developed the mice were castrated and ASC-J9 was injected, Two or three combinations of the drugs that target S/P population cells were administered. A tumor development curve indicated the recurrence of castration resistant tumors.
# [4] = system: AR expression in LNCaP CD133+ cells; assay: Induction of AR expression in LNCaP CD133+ cells; type: cell-based, human
# [5] = target: T1, AR (Homo sapiens, UniProt P10275); conditions: stated as known; cited from earlier work
# T1 sequence (P10275 1-920): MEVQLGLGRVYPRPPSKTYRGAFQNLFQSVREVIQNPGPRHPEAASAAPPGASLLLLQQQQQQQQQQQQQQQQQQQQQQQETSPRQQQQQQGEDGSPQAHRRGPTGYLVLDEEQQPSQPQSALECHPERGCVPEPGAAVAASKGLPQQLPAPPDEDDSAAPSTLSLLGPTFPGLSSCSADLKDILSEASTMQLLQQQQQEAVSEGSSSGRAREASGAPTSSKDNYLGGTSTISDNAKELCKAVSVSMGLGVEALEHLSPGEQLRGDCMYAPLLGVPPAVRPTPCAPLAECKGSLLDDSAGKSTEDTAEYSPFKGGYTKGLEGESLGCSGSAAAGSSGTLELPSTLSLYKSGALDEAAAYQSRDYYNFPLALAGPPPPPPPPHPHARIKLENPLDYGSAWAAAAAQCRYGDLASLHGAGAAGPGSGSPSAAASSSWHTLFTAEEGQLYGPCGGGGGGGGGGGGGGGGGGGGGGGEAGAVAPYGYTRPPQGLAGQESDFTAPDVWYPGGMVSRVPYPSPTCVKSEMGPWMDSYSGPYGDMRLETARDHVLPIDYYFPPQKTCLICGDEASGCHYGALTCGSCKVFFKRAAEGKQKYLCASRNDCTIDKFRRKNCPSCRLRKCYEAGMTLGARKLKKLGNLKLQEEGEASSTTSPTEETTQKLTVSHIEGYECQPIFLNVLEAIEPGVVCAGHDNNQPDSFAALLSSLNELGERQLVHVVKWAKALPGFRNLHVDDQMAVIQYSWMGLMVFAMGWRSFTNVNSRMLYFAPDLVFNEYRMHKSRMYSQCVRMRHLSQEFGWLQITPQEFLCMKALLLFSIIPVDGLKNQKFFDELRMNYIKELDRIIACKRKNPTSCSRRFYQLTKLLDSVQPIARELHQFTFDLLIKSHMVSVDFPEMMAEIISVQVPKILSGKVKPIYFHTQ
# [6] = stated as known; cited from earlier work
# [7] = system: LNCaP cells; assay: CD133+ population after continuous Casodex treatment, LNCaP; type: cell-based, human; conditions: Casodex for 5 wks continuously
# Experimental: (§3) In order to investigate whether S/P cell numbers increase after ADT/castration, LNCaP cells were treated with anti-androgen, Casodex, to mimic castration conditions in vitro. […] Similar experiments were performed with C4-2 and LAPC-4 cell lines.
# [8] = system: C4-2 cells; assay: CD133+ population after Casodex treatment, C4-2; type: cell-based, human; conditions: C4-2, Casodex treatment
# Experimental: as §3
molecule,measurement,setting,value
TGF-β1: TGF-β1 protein used to treat primary cultured human prostate stromal cells,number of mature stromal smooth muscle cells (α-SMA and calponin staining),[1],significantly dependent on the higher concentration and longer duration
same,MyoD and Myogenin expression,[2],modulated
"Nc1ncn([C@H]2C[C@H](O)[C@@H](CO)O2)c(=O)n1 [5-AZA, 5-aza-2′-deoxycytidine]",IC50,[3]; read-out: IC50 of the individual compound,2500 to 5000 nM
same,inhibitory effect on proliferation of the S/P cells,[3],inhibits proliferation
same,AR expression,[4],Induction of AR expression
"CC(C)=CCC/C(C)=C/CC/C(C)=C/CC[C@]1(C)CCc2cc(O)c(C)c(C)c2O1 [γ-TT, γ-tocotrienol]",inhibitory effect on proliferation of the S/P cells,[3],inhibitory effect
COc1ccc(/C=C/C(=O)/C=C(O)/C=C/c2ccc(OC)c(OC)c2)cc1OC [ASC-J9],AR degrading activity,[5],AR degrading activity
same,toxicity,[6],without toxicity
CC(O)(CS(=O)(=O)c1ccc(F)cc1)C(=O)Nc1ccc(C#N)c(C(F)(F)F)c1 (stereo not drawn) [Casodex],CD133+ population cells,[7],significantly increased; also recorded: increase
same,CD133+ population cells,[8],not as significant as in LNCaP cells
O=c1cc(N2CCOCC2)oc2c(-c3ccccc3)cccc12 [LY294002],IC50,"[3]; LY294002 + γ-TT + 5-AZA together, S/P cells, MTT, read-out: IC50 of the individual compound when three compounds were used together",< 1000 nM
same,IC50,"[3]; compound used alone, S/P cells, MTT, read-out: IC50 of the individual compound",2500 to 5000 nM
